US20120053200A1, “BACE 2 INHIBITORS” (priority 2010, published 2012)

Target: T1, BACE2 (Rattus norvegicus, UniProt Q6IE75)
T1 construct: endogenous cellular BACE2 in the Ins1e rat cell line; endogenous in cells; host or cells: INS-TMEM27 (INS1e-derived rat beta-cell line with doxycycline-inducible full-length hTMEM27)
T1 sequence (Q6IE75 63-514): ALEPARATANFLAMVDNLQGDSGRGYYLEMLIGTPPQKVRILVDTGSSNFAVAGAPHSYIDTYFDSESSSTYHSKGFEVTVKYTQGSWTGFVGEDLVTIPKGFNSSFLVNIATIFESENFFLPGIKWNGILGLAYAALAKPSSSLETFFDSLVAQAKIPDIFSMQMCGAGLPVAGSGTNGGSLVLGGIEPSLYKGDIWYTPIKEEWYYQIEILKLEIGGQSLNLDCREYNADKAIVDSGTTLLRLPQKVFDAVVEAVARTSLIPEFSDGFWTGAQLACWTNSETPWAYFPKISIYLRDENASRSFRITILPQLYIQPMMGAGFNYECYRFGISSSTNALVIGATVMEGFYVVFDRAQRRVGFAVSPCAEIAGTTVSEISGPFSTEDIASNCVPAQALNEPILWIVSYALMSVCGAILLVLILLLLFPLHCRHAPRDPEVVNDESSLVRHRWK
Assay: Assay for BACE inhibition by measuring cellular TMEM27 cleavage (INS-TMEM27 cells, ELISA of shed TMEM27)
Format: cell-based
Conditions: inhibition of human TMEM27 cleavage by endogenous cellular BACE2 in INS1e-derived INS-TMEM27 rat cell line; ELISA of shed TMEM27 in supernatant
From the text: Assay for […] Inhibition by Measuring Cellular TMEM27 Cleavage
This assay uses the principle of inhibition of human TMEM27 cleavage by endogenous cellular BACE2 in the Ins1e rat cell line and shedding from the cell surface into the culture medium, followed by detection in an ELISA assay. Inhibition of BACE2 prevents the cleavage and shedding in a dose-dependent manner.
The stable cell line “INS-TMEM27” represents an INS1e-derived cell line with inducible expression (using the TetOn system) of full-length hTMEM27 in a doxycycline-dependent manner. The cells were cultured throughout the experiment in RPMI1640+Glutamax (Invitrogen) Penicillin/Streptomycin, 10% Fetal bovine serum, 100 mM pyruvate, […] beta-mercatptoethanol, 100 micrograms/ml G418 and 100 microgram/ml hygromycin and were grown in adherent culture at 37° C. in a standard CO2 cell culture incubator.
INS-TMEM27 cells were seeded in 96-well plates. After 2 days in culture, BACE2 inhibitor was added in a range of concentrations as required by the assay and after a further two hours, doxycycline was added to a final concentration of 500 ng/ml. The cells were incubated for a further 46 hours and the supernatant harvested for detection of shed TMEM27.
An ELISA assay (using a pair of mouse anti-human-TMEM27 antibodies, raised against the extracellular domain of TMEM27) was used for detection of TMEM27 in the culture medium. An IC50 for BACE2 inhibition was calculated using the ELISA readout for each inhibitor concentration with standard curve-fitting software.
The inhibitory activity, given as an IC50 value, of the compounds of Examples 1 to 32 and 34 to 74 were as follows.

| IC50 [nM] | SMILES |
| --- | --- |
| 205 | Cc1csc(CN(C)C(=O)c2cccc(C(=O)N[C@@H](Cc3ccccc3)[C@H](O)CNCc3cccc(C(F)(F)F)c3)c2)n1 [Example 1, N-[(1S,2R)-1-Benzyl-2-hydroxy-3-(3-trifluoromethyl-benzylamino)-propyl]-N′-methyl-N′-(4-methyl-thiazol-2-ylmethyl)-isophthalamide] |
| 258 | Cc1csc(CN(C)C(=O)c2cccc(C(=O)N[C@@H](Cc3ccccc3)[C@H](O)CNCc3cccc(OC(F)(F)F)c3)c2)n1 [Example 2, N-[(1S,2R)-1-Benzyl-2-hydroxy-3-(3-trifluoromethoxy-benzylamino)-propyl]-N′-methyl-N′-(4-methyl-thiazol-2-ylmethyl)-isophthalamide] |
| 175 | COc1cccc(CNC[C@@H](O)[C@H](Cc2ccccc2)NC(=O)c2cccc(C(=O)N(C)Cc3nc(C)cs3)c2)c1 [Example 3, N-[(1S,2R)-1-Benzyl-2-hydroxy-3-(3-methoxy-benzylamino)-propyl]-N′-methyl-N′-(4-methyl-thiazol-2-ylmethyl)-isophthalamide] |
| 471 | O=C(N[C@@H](Cc1ccccc1)[C@H](O)CNCc1cccc(OC(F)(F)F)c1)c1cccc(C(=O)N2CCCC2c2ccncc2)c1 (stereo partly drawn) [Example 4, N-[(1S,2R)-1-Benzyl-2-hydroxy-3-(3-trifluoromethoxy-benzylamino)-propyl]-3-(2-pyridin-4-yl-pyrrolidine-1-carbonyl)-benzamide] |
| 140 | O=C(N[C@@H](Cc1ccccc1)[C@H](O)CNCc1cccc(C(F)(F)F)c1)c1cccc(C(=O)N2CCCC2c2ccncc2)c1 (stereo partly drawn) [Example 5, N-[(1S,2R)-1-Benzyl-2-hydroxy-3-(3-trifluoromethyl-benzylamino)-propyl]-3-(2-pyridin-4-yl-pyrrolidine-1-carbonyl)-benzamide] |
| 520 | O=C(NCc1ccccn1)c1cccc(C(=O)N[C@@H](Cc2ccccc2)[C@H](O)CNCc2cccc(OC(F)(F)F)c2)c1 [Example 6, N-[(1S,2R)-1-Benzyl-2-hydroxy-3-(3-trifluoromethoxy-benzylamino)-propyl]-N′-pyridin-2-ylmethyl-isophthalamide] |
| 478 | O=C(NCc1ccccn1)c1cccc(C(=O)N[C@@H](Cc2ccccc2)[C@H](O)CNCc2cccc(C(F)(F)F)c2)c1 [Example 7, N-[(1S,2R)-1-Benzyl-2-hydroxy-3-(3-trifluoromethyl-benzylamino)-propyl]-N′-pyridin-2-ylmethyl-isophthalamide] |
| 822 | CC1(C)[C@@H]2CC[C@@]1(C)CN(C(=O)c1cccc(C(=O)N[C@@H](Cc3ccccc3)[C@H](O)CNCc3cccc(OC(F)(F)F)c3)c1)C2 [Example 8, N-[(1S,2R)-1-Benzyl-2-hydroxy-3-(3-trifluoromethoxy-benzylamino)-propyl]-3-((1R,5S)-1,8,8-trimethyl-3-aza-bicyclo[3.2.1]octane-3-carbonyl)-benzamide] |
| 263 | O=C(N[C@@H](Cc1ccccc1)[C@H](O)CNCc1cccc(OC(F)(F)F)c1)c1cccc(C(=O)N2CCC(c3ccccn3)C2)c1 (stereo partly drawn) [Example 9, N-[(1S,2R)-1-Benzyl-2-hydroxy-3-(3-trifluoromethoxy-benzylamino)-propyl]-3-(3-pyridin-2-yl-pyrrolidine-1-carbonyl)-benzamide] |
| 14 | Cc1cc(C(=O)N[C@@H](Cc2ccccc2)[C@H](O)CNCc2cccc(OC(F)(F)F)c2)cc(C(=O)N2CCC[C@@H]2c2nc(C)cs2)c1 [Example 10, N-[(1S,2R)-1-Benzyl-2-hydroxy-3-(3-trifluoromethoxy-benzylamino)-propyl]-3-methyl-5-[(R)-2-(4-methyl-thiazol-2-yl)-pyrrolidine-1-carbonyl]-benzamide] |
| 9 | Cc1csc([C@H]2CCCN2C(=O)c2cccc(C(=O)N[C@@H](Cc3ccccc3)[C@H](O)CNCc3cccc(C(F)(F)F)c3)c2)n1 [Example 11, N-[(1S,2R)-1-Benzyl-2-hydroxy-3-(3-trifluoromethyl-benzylamino)-propyl]-3-[(R)-2-(4-methyl-thiazol-2-yl)-pyrrolidine-1-carbonyl]-benzamide] |
| 75 | O=C(N[C@@H](Cc1ccccc1)[C@H](O)CNCc1cccc(C(F)(F)F)c1)c1cccc(C(=O)N2CCCC2c2ccccc2)c1 (stereo partly drawn) [Example 12, N-[(1S,2R)-1-Benzyl-2-hydroxy-3-(3-trifluoromethyl-benzylamino)-propyl]-3-(2-phenyl-pyrrolidine-1-carbonyl)-benzamide] |
| 68 | O=C(N[C@@H](Cc1ccccc1)[C@H](O)CNCc1cccc(C(F)(F)F)c1)c1cccc(C(=O)N2CCCC2c2cccnc2)c1 (stereo partly drawn) [Example 13, N-[(1S,2R)-1-Benzyl-2-hydroxy-3-(3-trifluoromethyl-benzylamino)-propyl]-3-(2-pyridin-3-yl-pyrrolidine-1-carbonyl)-benzamide] |
| 63 | Cn1ccc(C2CCCN2C(=O)c2cccc(C(=O)N[C@@H](Cc3ccccc3)[C@H](O)CNCc3cccc(C(F)(F)F)c3)c2)n1 (stereo partly drawn) [Example 14, N-[(1S,2R)-1-Benzyl-2-hydroxy-3-(3-trifluoromethyl-benzylamino)-propyl]-3-[2-(1-methyl-1H-pyrazol-3-yl)-pyrrolidine-1-carbonyl]-benzamide] |
| 332 | Cn1nccc1C1CCCN1C(=O)c1cccc(C(=O)N[C@@H](Cc2ccccc2)[C@H](O)CNCc2cccc(C(F)(F)F)c2)c1 (stereo partly drawn) [Example 15, N-[(1S,2R)-1-Benzyl-2-hydroxy-3-(3-trifluoromethyl-benzylamino)-propyl]-3-[2-(2-methyl-2H-pyrazol-3-yl)-pyrrolidine-1-carbonyl]-benzamide] |
| 55 | Cc1cc(C2CCCN2C(=O)c2cccc(C(=O)N[C@@H](Cc3ccccc3)[C@H](O)CNCc3cccc(C(F)(F)F)c3)c2)on1 (stereo partly drawn) [Example 16, N-[(1S,2R)-1-Benzyl-2-hydroxy-3-(3-trifluoromethyl-benzylamino)-propyl]-3-[2-(3-methyl-isoxazol-5-yl)-pyrrolidine-1-carbonyl]-benzamide] |
| 213 | Cc1noc(C2CCCN2C(=O)c2cccc(C(=O)N[C@@H](Cc3ccccc3)[C@H](O)CNCc3cccc(C(F)(F)F)c3)c2)n1 (stereo partly drawn) [Example 17, N-[(1S,2R)-1-Benzyl-2-hydroxy-3-(3-trifluoromethyl-benzylamino)-propyl]-3-[2-(3-methyl-[1,2,4]oxadiazol-5-yl)-pyrrolidine-1-carbonyl]-benzamide] |
| 47 | CN(Cc1ccccn1)C(=O)c1cccc(C(=O)N[C@@H](Cc2ccccc2)[C@H](O)CNCc2cccc(C(F)(F)F)c2)c1 [Example 18, N-[(1S,2R)-1-Benzyl-2-hydroxy-3-(3-trifluoromethyl-benzylamino)-propyl]-N′-methyl-N′-pyridin-2-ylmethyl-isophthalamide] |
| 8 | O=C(N[C@@H](Cc1ccccc1)[C@H](O)CNCc1cccc(C(F)(F)F)c1)c1cccc(C(=O)N2CCCC2c2cccs2)c1 (stereo partly drawn) [Example 19, N-[(1S,2R)-1-Benzyl-2-hydroxy-3-(3-trifluoromethyl-benzylamino)-propyl]-3-(2-thiophen-2-yl-pyrrolidine-1-carbonyl)-benzamide] |
| 143 | COc1cccc(CNC[C@@H](O)[C@H](Cc2ccccc2)NC(=O)c2cccc(C(=O)N3CCC[C@@H]3c3nc(C)cs3)c2)c1 [Example 20, N-[(1S,2R)-1-Benzyl-2-hydroxy-3-(3-methoxy-benzylamino)-propyl]-3-[(R)-2-(4-methyl-thiazol-2-yl)-pyrrolidine-1-carbonyl]-benzamide] |
| 37 | Cc1csc([C@H]2CCCN2C(=O)c2cccc(C(=O)N[C@@H](Cc3ccccc3)[C@H](O)CNCc3cccc(OC(F)(F)F)c3)c2)n1 [Example 21, N-[(1S,2R)-1-Benzyl-2-hydroxy-3-(3-trifluoromethoxy-benzylamino)-propyl]-3-[(R)-2-(4-methyl-thiazol-2-yl)-pyrrolidine-1-carbonyl]-benzamide] |
| 31.2 | COc1cccc(CNC[C@@H](O)[C@H](Cc2ccccc2)NC(=O)c2cccc(C(=O)N3CCCC3c3ccccc3)c2)c1 (stereo partly drawn) [Example 22, N-[(1S,2R)-1-Benzyl-2-hydroxy-3-(3-methoxy-benzylamino)-propyl]-3-(2-phenyl-pyrrolidine-1-carbonyl)-benzamide] |
